The subject of data set [1] is LNCaP cells. Description: LNCaP cell growth, compound in combination with ATRA. It is filed as cell-based, human. The following applies: 10^−8 to 10^−5 M in combination with 10^−5 M ATRA, compared with no drug or ATRA only. Here is the method: LNCaP cells are androgen-dependent cell cultures. PC-3 cells are androgen independent cell culture.
LNCaP cells are transferred into ATRA-free medium 3 days prior to start of experiments. Medium consist of phenol red-free IMEM supplemented with 5% FBS and 1% P/S. Cell are then plated into 24-well culture plates (15000 cells per well) in 1 mL of same medium. After a 24-hour attachment period, the vehicle (ethanol) or ATRA (10^−5 M) alone or ATRA in combination with a novel compound at a range of concentrations are added to triplicate wells. Medium/treatments are changed every 3 days. After 9 days of treatment, cells are removed from the wells with typsin/EDTA and counted in a Coulter counter. Using well-known methods (Wouters W, Van Dun J, Dillen A, Coene M.-C, Cools W and De Coster R, Effects of liarozole, a new antitumoral compound an retinoic acid-induced inhibition of cell growth and on retinoic acid metabolism in MCF-7 breast cancer cells, Cancer Res 52: 2841-2846, 1992), one determines the inhibitory effect of the novel compounds on LNCaP cells grown with ATRA.

Data set [2] concerns the target ATRA 4-hydroxylase (Mesocricetus auratus, UniProt A0A1U7QD41). Description: Hamster liver microsome assay of ATRA metabolism (ATRA 4-hydroxylase inhibition). It is filed as biochemical. Here is the method:
Washed hamster liver microsomes were prepared as follows: Livers are removed from sacrificed animals, rinsed in ice-cold 0.9% NaCl solution and homogenized in a 3-fold volume of 0.25 M sucrose-0.05 M Tris-HCl (pH 7.4) using a blender. Microsomes are isolated by differential centrifugation (10,000×g, 20 minutes; 100,000×g, 60 minutes; 4° C.) using a well-known technique (Van Wauwe, J.; Van Nyen, G.; Coene, M-C.; Stoppie, P.; Cols, W.; Goossens, J, Borghgraef, P.; Janssen, P A J, Liarozole, an Inhibitor of Retinoic Acid Metabolism, Exerts Retinoid-Mimetic Effects, In Vivo. J. Pharmacol. Expt. Ther. 261, 773-779, 1992). The microsomes are suspended in PBS buffer (pH 7.4), in 1 ml aliquots and stored at −70° C. until required.
The standard reaction mixture (total of 400 μl) is composed of assay buffer, 140 μl; microsomes, 100 μl ([…]); NADPH, 100 μl ([…]); and a C-4 substituted ATRA analog dissolved in DMSO, 40 μl. After a 3 minute preincubation at 37° C., the reaction is initiated by addition of 20 μl of [11,12-^3H]-ATRA (20 μCi/ml). The incubation is carried out for 30 minutes under oxygen with shaking in a water bath at 37° C. The reaction is stopped by acidification with 0.1 ml formic acid, and the samples are extracted (×2) with EtOAc (2 ml) containing 0.05% butylated hydroxyanisole. The combined organic extracts are evaporated in vacuo, dissolved in 200 μl of the mobile phase for HPLC. An aliquot is analyzed for tritium content by liquid scintillation spectrometry. Usually, >95% of the added radioactivity is recovered. Most of the samples (150 μl) are analyzed on a 10 (m C18 Bondapak column (3.9×300 mm, Millipore), eluted with a multi-linear gradient solvent system: i, MeOH—H2O—HCOOH (60:40:0.05) containing 10 mM ammonium acetate (100 (0%) and ii, MeOH (0 (100%) at 2 ml/min. The radioactivity is measured by an on-line radio-detector. The Rts of ATRA, 4-hydroxy-ATRA and 4-oxo-ATRA are determined by UV absorbance at 350 nm in separate cuvettes. Typically, 80±5% of [11, 12-^3H]ATRA is converted into the metabolites.
The C-4 substituted ATRA analogs are tested at two concentrations, 500 and 1000 nM. IC50 and Ki values are determined.
Incubation of [11,12-^3]ATRA with hamster liver microsomes as described above results in the formation of polar metabolites, including 4-hydroxy-ATRA and 4-oxo-ATRA (see FIG. 7A). […] VN/14-1RA inhibits cytochrome P450-dependent metabolism of ATRA.
Table 2B represents repeated testing of some of the compounds in Table 2A and testing on additional compounds. For comparison, the IC50 values of liarozole and ketoconazole (known inhibitors of ATRA 4-hydroxylase) were also determined.
A general note: Liver microsomes are vesicles of endoplasmic reticulum, rich in cytochrome P450 enzymes.

Data set [3] deals with PC-3 cells. The following applies: 9 days, with ATRA (1 nM), FIG. 16.
Protocol: Experiments are conducted on two prostate cancer cell lines, LNCaP cells and PC-3 cells.
This method also is repeated using PC-3 cells.
PC-3 cells were incubated with test compounds for 9 days with medium changes on days 2, 5, and 7 and proliferation assessed as described above.
Data set [4] concerns PC-3 tumors. The experiment in a line: Growth of PC-3 tumors in male nude mice. It is filed as in vivo. To be noted: PC-3 xenografts. How it is done: FIG. 20: Effect of ATRA and VN/50A-1 on PC 3 Tumor Volumes in Male Nude Mice
The effects of VN/50A-1 on tumor growth was determined in mouse xenografts and compared to ATRA as the reference treatment (FIG. 20). Mice were grouped 35 days after cell inoculation when measurable tumor volume was approximately 500 mm^3. Total tumor volume in the control mice increased 5.4-fold over 7 weeks and tumor volume in the mice treated with ATRA increased by 3.2-fold (41% reduction compared with control). In the mice treated with VN/50A-1, tumor volume increased by 3.5-fold, which was 38% reduction versus control mice, which correlated well with accumulation of ATRA in plasma and in tumors. […] VN/50A-1 is completely eliminated from plasma within 3 hour of administration to mice (see FIG. 18). The inventive compounds with longer half-lives will have favorable bioavailability and are expected to be more efficacious.

Like-named read-outs stand apart in the source and are kept apart here.

ATRA 4-hydroxylase, sequence (A0A1U7QD41 entry or part of it): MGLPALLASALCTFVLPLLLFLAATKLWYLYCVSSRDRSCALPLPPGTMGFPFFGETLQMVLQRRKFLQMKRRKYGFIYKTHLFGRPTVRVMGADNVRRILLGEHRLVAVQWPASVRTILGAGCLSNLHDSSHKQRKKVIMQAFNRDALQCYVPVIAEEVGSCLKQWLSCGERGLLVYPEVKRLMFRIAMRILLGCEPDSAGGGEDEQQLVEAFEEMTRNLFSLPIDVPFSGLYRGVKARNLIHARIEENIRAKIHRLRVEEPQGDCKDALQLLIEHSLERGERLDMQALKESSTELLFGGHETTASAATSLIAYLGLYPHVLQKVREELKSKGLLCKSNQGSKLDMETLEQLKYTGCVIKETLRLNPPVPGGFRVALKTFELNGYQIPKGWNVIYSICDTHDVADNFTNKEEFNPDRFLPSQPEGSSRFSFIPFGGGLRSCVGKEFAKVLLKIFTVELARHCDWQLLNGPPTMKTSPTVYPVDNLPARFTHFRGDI

What is called IC50 is the concentration that inhibits the measured activity by half. On to `CC1=C(/C=C/C(C)=C/C=C/C(C)=C/C(=O)O)C(C)(C)CCC1n1ccnc1` (racemic) [VN/14-1, (±)-4-(1H-imidazole-1-yl)retinoic acid], for which, in data set [1], the “inhibition of proliferation of LNCaP cells” value is reported as “inhibit the proliferation of LNCaP cells better than no drug or ATRA only”. Also, in data set [2] (1 μM compound, hamster liver microsomes, FIG. 7B), the “microsomal conversion of ATRA to polar metabolites” value is given as “significantly suppressed”. Further, the half-inhibitory concentration (IC50) in data set [2] (hamster liver microsomes, Table 2A, initial testing, read-out: IC50 Value) stood at 100 ± 1 nM; in data set [2] (hamster liver microsomes, Table 2B, repeated testing and additional compounds, read-out: IC50 Value, Inhibition of ATRA 4-Hydroxylase), 1.2 ± 0.072 nM. Besides, in data set [3], the “antiproliferative effect on PC-3 cells” value is “clearly more effective than liarozole”.

Consider `CC(C=CC1=C(C)C(n2ccnc2)CCC1(C)C)=CC=CC(C)=CC(=O)n1ccnc1` (stereo not drawn) [VN/50A-1], for which the “fold more potent than liarozole” value in data set [2] (ratio of IC50 values, liarozole IC50 6,000 nM) was 240,000 fold. Also, the “tumor weights versus control mice” value in data set [4] is on record as “significantly (P<0.05) lower”. The “reduction of tumor volume compared with control” value in data set [4] (over 7 weeks) is 38%. The “increase of total tumor volume” value in data set [4] (over 7 weeks, control 5.4-fold) is given as 3.5 fold.
